One may read the IC50 as the point on the concentration scale where inhibition reaches its midpoint.

Here are results for 22 compounds from patent publication US20070299072A1, “KV1.5 POTASSIUM CHANNEL INHIBITORS” (Wyeth, priority 2006, published 2007).

Molecules are shown by their SMILES.

Holding throughout (type): cell-based
One series relates to L-type calcium channels. Description: FLIPR L-type Calcium Channel Assay (calcium influx in HL-1 cells after KCl). The settings on record: read-out: L-type Ca2+ IC50. Here is the method:
HL-1 cells expressing endogenous L-type calcium channels are removed from culture flasks using trypsin, plated on fibronectin/gelatin-coated, clear-bottomed, black-walled 96-well microplates in Claycomb media (JRH Biosciences #51800) containing 10% fetal bovine serum, 4 mM L-glutamine, and 10 μM norepinephrine, and grown to confluency overnight. The next day, growth medium is aspirated from confluent cell monolayers and replaced with 100 μL per well Tyrode's solution (in mM: 130 NaCl, 4 KCl, 1.8 CaCl2, 1.0 MgCl2, 20 HEPES, 10 glucose, pH 7.35) and 50 μL per well FLIPR Calcium Assay kit, component A (#R-8033, Molecular Devices Corporation) and incubated for 60 min. in a 5% CO2 37° C. incubator. 50 μL per well test compounds are added to the plates and further incubated for 15 min. in a 5% CO2 37° C. incubator. All final solutions contain the anion exchange inhibitor, probenecid (2.5 mM). The 96-well plates are then placed in the center position of the FLIPR 1 (Fluorometric Imaging Plate Reader, Molecular Devices Corporation). Cell monolayers in each well are simultaneously illuminated at 488 nm with an Argon ion laser, and fluorescence emission is monitored using a 510-570 nm bandpass filter and a cooled CCD camera. To depolarize the plasma membrane and activate L-type calcium channels, 50 μL per well of 20 mM KCl (final concentration) are dispensed simultaneously to all 96 wells using the FLIPR's automatic 96-well pipettor. Fluorescence measurements are captured for 5 min. following KCl addition. Calcium influx, expressed as % control, is calculated for each concentration of test compound and concentration-response curves and IC50 values are generated using GraphPad Prism 4.0.

In the next series the target is T1, HERG (Homo sapiens, UniProt Q12809).
T1 construct: expressed in transfected cells; host or cells: HEK cells
Description: HERG Patch Clamp EP (whole cell patch clamp, tail currents; single point at 10 μM and IC50). The settings on record: human, HEK cells stably overexpressing HERG, single point at 10 μM, HERG in HEK cells, read-out: HERG % Inhib. @ 10 μM. From the text:
The external solution is standard Tyrodes solution.
(In general: In patch-clamp work, channel activity is measured electrically.)

Another series has as its target T2, Kv1.5 (Homo sapiens, UniProt P22460).
T2 construct: expressed in transfected cells; host or cells: HEK or LTK- cells
Description: Kv1.5 Patch Clamp EP (whole cell patch clamp; single point at 1 μM and IC50). The settings on record: for inhibition at 1 µM: single point at 1.0 μM, Kv1.5 stably over expressed in HEK or LTK- cells. Here is the method: The external solution is standard Tyrodes solution. […] Inhibition was measured at the end of the 1 second pulses and expressed relative to controls. Initial Kv1.5 inhibition is estimated by single point determinations done at 1 μM.

T2 sequence (P22460 whole entry): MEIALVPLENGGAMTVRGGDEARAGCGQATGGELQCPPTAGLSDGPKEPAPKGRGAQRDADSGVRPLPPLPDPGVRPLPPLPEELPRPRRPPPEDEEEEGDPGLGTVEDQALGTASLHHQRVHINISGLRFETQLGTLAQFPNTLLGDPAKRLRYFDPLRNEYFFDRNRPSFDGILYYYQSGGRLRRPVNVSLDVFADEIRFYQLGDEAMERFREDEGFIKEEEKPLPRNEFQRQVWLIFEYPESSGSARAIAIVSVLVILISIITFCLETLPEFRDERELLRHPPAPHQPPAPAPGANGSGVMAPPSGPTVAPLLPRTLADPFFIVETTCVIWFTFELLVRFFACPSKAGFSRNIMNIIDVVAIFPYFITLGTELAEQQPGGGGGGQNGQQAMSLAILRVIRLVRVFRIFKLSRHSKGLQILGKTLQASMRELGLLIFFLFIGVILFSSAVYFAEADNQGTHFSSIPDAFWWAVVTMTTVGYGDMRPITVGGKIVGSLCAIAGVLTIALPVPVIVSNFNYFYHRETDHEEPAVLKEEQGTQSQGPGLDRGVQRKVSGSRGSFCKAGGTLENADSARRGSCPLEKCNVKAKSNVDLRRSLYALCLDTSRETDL
T1 sequence (Q12809 whole entry): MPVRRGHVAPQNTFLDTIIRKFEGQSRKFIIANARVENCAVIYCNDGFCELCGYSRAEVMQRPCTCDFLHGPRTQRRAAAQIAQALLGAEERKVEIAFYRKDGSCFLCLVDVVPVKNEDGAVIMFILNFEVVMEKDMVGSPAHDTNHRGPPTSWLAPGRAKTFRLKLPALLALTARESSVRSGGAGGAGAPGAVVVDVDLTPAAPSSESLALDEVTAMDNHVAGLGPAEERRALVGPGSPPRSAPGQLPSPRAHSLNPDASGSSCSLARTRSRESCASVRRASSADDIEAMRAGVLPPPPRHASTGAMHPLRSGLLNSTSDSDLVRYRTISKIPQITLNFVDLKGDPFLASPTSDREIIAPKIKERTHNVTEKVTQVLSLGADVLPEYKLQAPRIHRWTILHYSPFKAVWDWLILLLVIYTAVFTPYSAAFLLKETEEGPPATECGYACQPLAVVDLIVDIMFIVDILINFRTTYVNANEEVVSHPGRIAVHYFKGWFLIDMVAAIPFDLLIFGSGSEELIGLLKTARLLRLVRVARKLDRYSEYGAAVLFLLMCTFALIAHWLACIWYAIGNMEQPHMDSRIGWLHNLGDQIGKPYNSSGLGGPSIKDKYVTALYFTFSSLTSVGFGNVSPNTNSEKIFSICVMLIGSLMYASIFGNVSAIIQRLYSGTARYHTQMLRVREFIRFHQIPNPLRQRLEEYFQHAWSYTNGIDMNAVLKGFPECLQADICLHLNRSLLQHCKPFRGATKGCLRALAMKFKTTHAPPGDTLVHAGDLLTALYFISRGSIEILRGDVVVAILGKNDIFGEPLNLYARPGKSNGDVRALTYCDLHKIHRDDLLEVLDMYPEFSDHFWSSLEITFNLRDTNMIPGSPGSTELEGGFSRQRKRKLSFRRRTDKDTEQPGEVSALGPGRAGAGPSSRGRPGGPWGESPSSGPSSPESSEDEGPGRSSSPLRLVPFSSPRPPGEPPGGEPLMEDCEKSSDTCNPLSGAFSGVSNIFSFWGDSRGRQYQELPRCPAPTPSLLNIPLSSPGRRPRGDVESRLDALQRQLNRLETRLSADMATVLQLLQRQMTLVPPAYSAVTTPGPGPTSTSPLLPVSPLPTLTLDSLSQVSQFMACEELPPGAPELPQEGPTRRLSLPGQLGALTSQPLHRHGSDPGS

Turning to `COc1ccc(CCN2C(=O)C3(CCN(S(C)(=O)=O)CC3)N(C)C2c2ccc(C3CC3)cc2)cc1` (stereo not shown) [Compound 32, 2-(4-cyclopropylphenyl)-8-methanesulfonyl-3-[2-(4-methoxy-phenyl)ethyl]-1-methyl-1,3,8-triaza-spiro[4.5]decan-4-one], the IC50 in the series on L-type calcium channels is 13 µM. Moreover, the inhibition at 10 µM at HERG worked out at 57%. This compound also came in with an inhibition at 1 µM against Kv1.5 of 90%. The like results for `COc1ccc(CCN2C(=O)C3(CCN(C(=O)N4CCN(C)CC4)CC3)N(C)C2c2ccc(C3CC3)cc2)cc1` (stereo not shown) [Compound 22, 2-(4-Cyclopropylphenyl)-3-[2-(4-methoxyphenyl)ethyl]-1-methyl-8-[(4-methylpiperazin-1-yl)carbonyl]-1,3,8-triaza-spiro[4.5]decan-4-one] were, in that order, 18 µM, 58% and 51%.

For the compound `COc1ccc(CCN2C(=O)C3(CCN(C(N)=O)CC3)N(C)C2c2ccc(C(C)(C)C)cc2)cc1` (stereo not shown) [Compound 12, 2-(4-tert-Butylphenyl)-3-[2-(4-methoxyphenyl)ethyl]-1-methyl-4-oxo-1,3,8-triaza-spiro[4.5]decane-8-carboxylic acid amide], the IC50 in the series on L-type calcium channels came out at 8 µM; against Kv1.5 (concentration response), 0.611 µM. Moreover, the inhibition at 10 µM at HERG was determined as 40%. The compound further came in with an inhibition at 1 µM against Kv1.5 of 70%. In the case of `COc1ccc(CCN2C(=O)C3(CCN(C(=O)N4CCCCC4)CC3)N(C)C2c2ccc(C3CC3)cc2)cc1` (stereo not shown) [Compound 9, 2-(4-Cyclopropylphenyl)-3-[2-(4-methoxyphenyl)ethyl]-1-methyl-8-(piperidine-1-carbonyl)-1,3,8-triaza-spiro[4.5]decan-4-one], the IC50 with L-type calcium channels came to 6.2 µM. The inhibition at 10 µM at HERG stood at 60%. The inhibition at 1 µM against Kv1.5 came to 96%. As to `COc1ccc(CCN2C(=O)C3(CCN(C(N)=O)CC3)N(C)C2c2ccc(C(F)(F)F)cc2)cc1` (stereo not shown) [Compound 11, 2-(4-Trifluoromethylphenyl)-3-[2-(4-methoxyphenyl)ethyl]-1-methyl-4-oxo-1,3,8-triaza-spiro[4.5]decane-8-carboxylic acid amide], the inhibition at 10 µM at HERG is 33%. Further, the inhibition at 1 µM against Kv1.5 is 29%. On to `CCNC(=O)N1CCC2(CC1)C(=O)N(CCc1ccc(OC)cc1)C(c1ccc(C(C)(C)C)cc1)N2C` (stereo not shown) [Compound 15, 2-(4-tert-Butylphenyl)-3-[2-(4-methoxyphenyl)ethyl]-1-methyl-4-oxo-1,3,8-triaza-spiro[4.5]decane-8-carboxylic acid ethyl amide], for which the IC50 in the series on L-type calcium channels is 2.5 µM. This compound registered an inhibition at 1 µM at Kv1.5 of 84%. With `CCCCC(=O)N1CCC2(CC1)C(=O)N(CCc1ccc(OC)cc1)C(c1ccc(OC(F)F)cc1)N2C` (stereo not shown) [Compound 81, 2-[4-(difluoromethoxy)phenyl]-3-[2-(4-methoxyphenyl)ethyl]-1-methyl-8-pentanoyl-1,3,8-triazaspiro[4.5]decan-4-one], the IC50 in the series with L-type calcium channels is 9 µM. Also, the inhibition at 10 µM at HERG is 95%. The compound also returned an inhibition at 1 µM at Kv1.5 of 80%. In the case of `CN1C(c2ccc(C3CC3)cc2)N(CCCc2ccccc2)C(=O)C12CCN(C(=O)OC(C)(C)C)CC2` (stereo not shown) [Compound 47, 2-(4-Cyclopropylphenyl)-1-methyl-4-oxo-3-(3-phenylpropyl)-1,3,8-triazaspiro-[4.5]decane-8-carboxylic acid tert-butyl ester], in the series on L-type calcium channels, the half-maximal inhibitory concentration (IC50) was found to be 20 µM. Moreover, the inhibition at 1 µM on Kv1.5 came to 75%. Regarding `COc1ccc(CCN2C(=O)C3(CCN(C(=O)N(C)OC)CC3)N(C)C2c2ccc(C3CC3)cc2)cc1` (stereo not shown) [Compound 28, 2-(4-Cyclopropylphenyl)-N-methoxy-3-[2-(4-methoxyphenyl)ethyl]-N,1-dimethyl-4-oxo-1,3,8-triazaspiro[4.5]decane-8-carboxamide], the IC50 with L-type calcium channels came to 8.4 µM. For the same compound, the inhibition at 1 µM on Kv1.5 was determined as 88%. The matching figures for `COc1ccc(CCN2C(=O)C3(CCN(C(=O)OC(C)(C)C)CC3)N(C)C2c2ccc(C3CC3)cc2)cc1` (stereo not shown) [Compound 65, 2-(4-cyclopropylphenyl)-3-[2-(4-methoxyphenyl)ethyl]-1-methyl-4-oxo-1,3,8-triaza-spiro[4.5]decane-8-carboxylic acid tert-butyl ester]: 3.6 µM and 80%.

On to `CCN(CC)C(=O)N1CCC2(CC1)C(=O)N(CCc1ccc(OC)cc1)C(c1ccc(C3CC3)cc1)N2C` (stereo not shown) [Compound 19, 2-(4-Cyclopropylphenyl)-3-[2-(4-methoxyphenyl)ethyl]-1-methyl-4-oxo-1,3,8-triaza-spiro[4.5]decane-8-carboxylic acid diethylamide], for which, in the series on L-type calcium channels, the IC50 was 5.3 µM. This compound also had an inhibition at 1 µM at Kv1.5 of 97%. As for `COc1ccc(CCN2C(=O)C3(CCN(C(N)=O)CC3)N(C)C2c2ccc(OC(F)F)cc2)cc1` (stereo not shown) [Compound 13, 2-(4-Difluoromethoxyphenyl)-3-[2-(4-methoxyphenyl)ethyl]-1-methyl-4-oxo-1,3,8-triaza-spiro[4.5]decane-8-carboxylic acid amide], the inhibition at 10 µM on HERG amounted to 57%. In addition, the inhibition at 1 µM against Kv1.5 came out at 46%. Regarding `CCN(CC)c1ccc(C2N(CCc3ccc(OC)cc3)C(=O)C3(CCN(C(=O)OC(C)(C)C)CC3)N2C)cc1` (stereo not shown) [Compound 39, tert-Butyl 2-(4-diethylaminophenyl)-3-[2-(4-methoxyphenyl)ethyl]-1-methyl-4-oxo-1,3,8-triazaspiro[4.5]decane-8-carboxylate], the IC50 in the series on L-type calcium channels is 4.4 µM. At Kv1.5, this compound returned an inhibition at 1 µM of 86%. Consider `COc1ccc(CCN2C(=O)C3(CCN(C(=O)NC(C)C)CC3)N(C)C2c2ccc(OC)cc2)cc1` (stereo not shown) [Compound 17, 2-(4-Methoxyphenyl)-3-[2-(4-methoxyphenyl)ethyl]-1-methyl-4-oxo-1,3,8-triaza-spiro[4.5]decane-8-carboxylic acid isopropylamide], for which the inhibition at 1 µM on Kv1.5 amounted to 31%. For `CNC(=O)N1CCC2(CC1)C(=O)N(CCCc1ccccc1)C(c1ccc(C3CC3)cc1)N2C` (stereo not shown) [Compound 51, 2-(4-Cyclopropylphenyl)-1-methyl-4-oxo-3-(3-phenylpropyl)-1,3,8-triazaspiro-[4.5]decane-8-carboxylic acid methylamide], the half-maximal inhibitory concentration (IC50) in the series with L-type calcium channels worked out at 10 µM. The same compound came in with an inhibition at 1 µM at Kv1.5 of 73%.

`COc1ccc(CCN2C(=O)C3(CCN(C(=O)OC(C)(C)C)CC3)NC2c2ccc(OC)cc2)cc1` (stereo not shown) [Compound 73, tert-butyl 2-(4-methoxyphenyl)-3-[2-(4-methoxyphenyl)ethyl]-4-oxo-1,3,8-triazaspiro[4.5]decane-8-carboxylate]: the inhibition at 1 µM at Kv1.5 was 11%.

For the compound `COc1ccc(CCN2C(=O)C3(CCN(C(=O)OC(C)C)CC3)N(C)C2c2ccc(C3CC3)cc2)cc1` (stereo not shown) [Compound 36, Isopropyl 2-(4-cyclopropylphenyl)-3-[2-(4-methoxyphenyl)ethyl]-1-methyl-4-oxo-1,3,8-triazaspiro[4.5]decane-8-carboxylate], the 50% inhibitory concentration (IC50) in the series with L-type calcium channels came out at 7.4 µM. For the same compound, the inhibition at 1 µM on Kv1.5 came to 92%. On to `COc1ccc(CCN2C(=O)C3(CCN(C(=O)OC(C)(C)C)CC3)N(C)C2c2ccc(C(C)(C)C)cc2)cc1` (stereo not shown) [Compound 38, tert-Butyl 2-(4-tert-butylphenyl)-3-[2-(4-methoxyphenyl)ethyl]-1-methyl-4-oxo-1,3,8-triazaspiro[4.5]decane-8-carboxylate], for which the inhibition at 1 µM on Kv1.5 turned out to be 28%. On the same count and under the same terms, the same measure for `COc1ccc(CCN2C(=O)C3(CCNCC3)N(C)C2c2ccc(C(C)(C)C)cc2)cc1` (stereo not shown) [Compound 2, 2-(4-tert-Butylphenyl)-3-[2-(4-methoxyphenyl)ethyl]-1-methyl-1,3,8-triaza-spiro[4.5]decan-4-one]: 6%; for `COC(=O)N1CCC2(CC1)C(=O)N(CCc1ccc(OC)cc1)C(c1ccc(C3CC3)cc1)N2C` (stereo not shown) [Compound 41, Methyl 2-(4-cyclopropylphenyl)-3-[2-(4-methoxyphenyl)ethyl]-1-methyl-4-oxo-1,3,8-triazaspiro[4.5]decane-8-carboxylate]: 17%. On the same count and under the same terms, the same measure for `COc1ccc(CCN2C(=O)C3(CCN(S(C)(=O)=O)CC3)NC2c2ccc(C3CC3)cc2)cc1` (stereo not shown) [Compound 79, 2-(4-cyclopropylphenyl)-3-[2-(4-methoxyphenyl)ethyl]-8-(methylsulfonyl)-1,3,8-triazaspiro[4.5]decan-4-one]: 8%; for `CN=C(N)N1CCC2(CC1)C(=O)N(CCc1ccc(OC)cc1)C(c1ccc(C3CC3)cc1)N2C` (stereo not shown) [Compound 86, 2-(4-cyclopropylphenyl)-3-[2-(4-methoxyphenyl)ethyl]-N′,1-dimethyl-4-oxo-1,3,8-triazaspiro[4.5]decane-8-carboximidamide]: 4%.
